US20140275090A1, “BILE ACID RECYCLING INHIBITORS FOR TREATMENT OF PRIMARY SCLEROSING CHOLANGITIS AND INFLAMMATORY BOWEL DISEASE” (Lumena Pharmaceuticals, Inc., priority 2013, published 2014)

Tests used:
fecal bile acids = experiment: Phase 1 ascending multiple oral doses of LUM001 in healthy adults: fecal bile acid analysis; assay type: in vivo, human; conditions: 28 days
Description: This Phase 1 study was a randomized, double-blind, placebo-controlled study of ascending multiple oral doses of LUM001 in healthy, adult subjects. This study was conducted at a single center. There were 13 LUM001 dosing panels: 10, 20, 60, 100, and 20 mg every morning (qAM) (2) (i.e., the regimen was tested a second time in the study), 5 mg every evening (qPM), 0.5, 1, 2.5, 5, 2.5 (2), 5 (2), and 0.5 to 5 mg qAM dose titration. Most of the dosing panels included subjects treated with matching placebo. No subject participated in more than 1 dosing panel. […]
On Day 1 of the Treatment Period, subjects who qualified for enrollment were randomized in the order in which they were admitted to the research facility. […] The safety and tolerability of LUM001 were evaluated by physical examination, ascertainment of adverse signs and symptoms, and clinical laboratory studies. […]
Fecal samples were collected for all panels except the dose-titration panel, 2.5 (2) and 5 mg (2), on Days 9 through 14 and 23 through 28 (data shown in FIG. 6; *p<0.05; **p<0.01 compared to placebo). Twenty-four hour FBA excretions were quantified by Pharmacia for Days 9 through 14 and 23 through 28. […] The weight of each 24-hour fecal collection was recorded on the CRFs. […]
An aliquot for each 24-hour fecal sample collected on Days 23 through 28 was combined, homogenized, and analyzed for bile acid species concentrations by ANAPHARM. […]

[1] = Open-label single-dose [14C]LUM001 oral solution study: radioactivity in plasma, whole blood, urine, feces; assay type: in vivo, human; conditions: for Radioactive Concentration, Plasma / Radioactive Concentration, Whole Blood: 5 mg [14C]LUM001 oral solution
Description: This was an open-label, one-period, single-dose study of a [^14C]LUM001 oral solution. Eight healthy male subjects received an oral solution of 5 mg [^14C]LUM001 (containing approximately […] per dose). Blood samples were collected at predose and for 72 hours postdose, urine samples were collected predose and for 168 hours postdose and feces were collected predose and for 216 hours postdose. Plasma, whole blood, urine and fecal samples were analyzed for total radioactivity, and selected fecal samples were analyzed for LUM001 and relevant metabolite concentrations. In addition, metabolic profiles in selected fecal samples were obtained using high performance liquid radio chromatography (HPLRC).

Radioactive Concentration, Plasma ([1]; 0.5 hr): BLQ | Radioactive Concentration, Plasma ([1]; 1 hr): BLQ | Radioactive Concentration, Whole Blood ([1]; 1 hr): 0.000 ng equivalents/g | Radioactive Concentration, Plasma ([1]; 1.5 hr): BLQ | Radioactive Concentration, Plasma ([1]; 2 hr): BLQ | Radioactive Concentration, Plasma ([1]; 2.5 hr): BLQ | Radioactive Concentration, Plasma ([1]; 3 hr): BLQ | Radioactive Concentration, Plasma ([1]; 4 hr): BLQ | Radioactive Concentration, Whole Blood ([1]; 4 hr): 0.000 ng equivalents/g | Radioactive Concentration, Plasma ([1]; 6 hr): BLQ | Radioactive Concentration, Plasma ([1]; 8 hr): BLQ | Radioactive Concentration, Plasma ([1]; 12 hr): BLQ | Radioactive Concentration, Plasma ([1]; 16 hr): 0.000 ng equivalents/mL | Radioactive Concentration, Plasma ([1]; 24 hr): BLQ | Radioactive Concentration, Plasma ([1]; 36 hr): 0.000 ng equivalents/mL | Radioactive Concentration, Plasma ([1]; 48 hr): BLQ | Radioactive Concentration, Plasma ([1]; 60 hr): BLQ | Radioactive Concentration, Plasma ([1]; 72 hr): BLQ | Radioactive Concentration, Whole Blood ([1]; −0.5 hr): 0.000 ng equivalents/g | Percent of Dose ([1]; analyte in feces, mean): 65.0 ± 3.1% | Cumulative % of Total Dose, Total (Urine and Feces) ([1]; radioactivity): 72.532% | Cumulative % of Total Dose, Urine ([1]; radioactivity, 0-2 hr): 0.005% | Cumulative % of Total Dose, Feces ([1]; radioactivity, 0-24 hr): 30.376% | Cumulative % of Total Dose, Urine ([1]; radioactivity, 2-4 hr): 0.012% | Cumulative % of Total Dose, Urine ([1]; radioactivity, 4-8 hr): 0.028% | Cumulative % of Total Dose, Urine ([1]; radioactivity, 8-12 hr): 0.041% | Cumulative % of Total Dose, Urine ([1]; radioactivity, 12-24 hr): 0.058% | Cumulative % of Total Dose, Feces ([1]; radioactivity, 24-48 hr): 49.878% | Cumulative % of Total Dose, Urine ([1]; radioactivity, 24-48 hr): 0.057% | Cumulative % of Total Dose, Feces ([1]; radioactivity, 48-72 hr): 67.630% | Cumulative % of Total Dose, Urine ([1]; radioactivity, 48-72 hr): 0.062% | Cumulative % of Total Dose, Feces ([1]; radioactivity, 72-96 hr): 69.653% | Cumulative % of Total Dose, Urine ([1]; radioactivity, 72-96 hr): 0.063% | Cumulative % of Total Dose, Feces ([1]; radioactivity, 96-120 hr): 71.606% | Cumulative % of Total Dose, Urine ([1]; radioactivity, 96-120 hr): 0.063% | Cumulative % of Total Dose, Feces ([1]; radioactivity, 120-144 hr): 71.771% | Cumulative % of Total Dose, Urine ([1]; radioactivity, 120-144 hr): 0.064% | Cumulative % of Total Dose, Feces ([1]; radioactivity, 144-168 hr): 71.815% | Cumulative % of Total Dose, Urine ([1]; radioactivity, 144-168 hr): 0.066% | Cumulative % of Total Dose, Feces ([1]; radioactivity, 168-192 hr): 71.885% | Cumulative % of Total Dose, Feces ([1]; radioactivity, 192-216 hr): 71.885% | Cumulative % of Total Dose, Feces ([1]; radioactivity, incl. Toilet Paper (cumulative recovery from first five fecal samples)): 72.466%
SMILES: CCCCC1(CCCC)CS(=O)(=O)c2ccc(N(C)C)cc2[C@@H](c2ccc(OCc3ccc(C[N+]45CCN(CC4)CC5)cc3)cc2)[C@H]1O [LUM001]
effect on fecal bile acids (fecal bile acids): significant increase
